The values that follow come from paper PMC5323086, “Ionization Constants of the Six Dichloroanilines and the Six Dichlorophenols in Aqueous Solution at 25 °C” (Journal of Research of the National Bureau of Standards. …, 1964).

Data set [1] is described as follows: pK calculated by the Hammett relation, eq (5) and eq (6).
A short description of data set [2]: pK calculated from monosubstituted compounds assuming additivity of substituent effects.
For data set [3] the following is noted: cited from earlier work.
Data set [4] is described as follows: pKA calculated from pKP of the corresponding phenol by linear relation eq (8).
Data set [5] can be described thus: pK values quoted from the literature. Type of data set: physicochemical. The conditions noted are these: Murray and Gordon value raised by 0.22.
The conditions of data set [6]: aqueous solution at 25°; final value, standard deviation in parentheses; 2,6-compound: limiting value at CHCl=0.
Setting [7] is: pK (calc.)−pK (obs.), pK (calc.) from monosubstituted compounds.

Where two headings read alike, the source gives them in different places.

On to `Nc1cc(Cl)cc(Cl)c1` [3,5-Dichloroaniline], for which, in data set [1], the “difference of Hammett-calculated pK from the observed value” (from here on “difference of Hammett-calculated pK”) was 0.02. Besides, in data set [2], the “ΔpK(1) Dichloroaniline” value was “.06”.

Turning to `Nc1ccc(Cl)cc1Cl` [2,4-Dichloroaniline, 2,4-Dichloroaniline], the “ΔpK(1) Dichloroaniline” value in data set [2] (setting [7]) is on record as “.01”. On to `Oc1cccc(Cl)c1Cl` [2,3-Dichlorophenol], for which, in data set [2], the “ΔpK(1) Dichlorophenol” value is reported as −0.05. For `Oc1ccc(Cl)cc1Cl` [2,4-Dichlorophenol], the “ΔpK(1) Dichlorophenol” value in data set [2] is “.06”. As to `Cc1ccc(C)c(O)c1` [2,5-xylenol], the pK in data set [3] is 10.40.

Take `O=C(O)c1cc(Cl)cc(Cl)c1` [3,5-dichlorobenzoic acid]: in data set [3], the “ionization constant (pK)” value is 3.43. `Nc1cc(Cl)ccc1Cl` [2,5-Dichloroaniline] displayed a melting point of 50 to 50.5 °C. In data set [3] (Gillois and Rumpf), the pKA is recorded as 1.57. As for `Nc1cccc(Cl)c1Cl` [2,3-Dichloroaniline], the “ΔpK(1) Dichloroaniline” value in data set [2] (setting [7]) is 0.16. Regarding `Cc1cc(N)ccc1[N+](=O)[O-]` [4-nitro-m-toluidine], the pK in data set [3] (Wepster) is 1.50. In addition, the “discrepancy between observed and predicted pK, eq (8)” value in data set [4] is listed as 0.17. Consider `Nc1ccc(Cl)cc1[N+](=O)[O-]` [4-chloro-2-nitroaniline], for which the “discrepancy between observed and predicted pK, eq (8)” value in data set [4] is reported as 1.03.

Take `Nc1ccc(Cl)c(Cl)c1` [3,4-Dichloroaniline]: the “ΔpK(1) Dichloroaniline” value in data set [2] was “−.07”.

As for `Oc1ccc(Cl)c(Cl)c1` [3,4-Dichlorophenol], in data set [1], the “difference of Hammett-calculated pK” value is on record as 0.08. Moreover, in data set [2], the “ΔpK(1) Dichlorophenol” value is “−.04”. Turning to `Oc1cc(Cl)cc(Cl)c1` [3,5-Dichlorophenol], the “difference of Hammett-calculated pK” value in data set [1] is recorded as 0.01. For the same compound, the “ΔpK(1) Dichlorophenol” value in data set [2] is “.07”.

In the case of `Oc1cc(Cl)ccc1Cl` [2,5-Dichlorophenol], the “ΔpK(1) Dichlorophenol” value in data set [2] is reported as “.15”. In turn, `Oc1c(Cl)cccc1Cl` [2,6-Dichlorophenol] displayed a pKP adjusted value in data set [5] of 7.01. The “ΔpK(1) Dichlorophenol” value in data set [2] is “.27”.

Regarding `Nc1c(Cl)cccc1Cl` [2,6-Dichloroaniline], in data set [6], the “pK Dichloroaniline” value worked out at 0.422. The “ΔpK(1) Dichloroaniline” value in data set [2] (setting [7]) is recorded as “.28”. Further, the pKa in the data set “physchem” is 0.482.

Take `O=C(O)c1ccc(Cl)c(Cl)c1` [3,4-dichlorobenzoic acid]: in data set [3], the “ionization constant (pK)” value was 3.64.

One may read the melting point as the temperature, or range, at which the solid turns liquid. One may read the pKa as the pH at which an ionisable group is half protonated. A higher pKa goes with a group that holds its proton tightly.
